Measurements taken from publication PMC11167047 (Cell Death Discovery, 2024).

What was measured:
Assay in all cases: kinome screen (33PanQinase)
Type in all cases: biochemical
BMPR1A = target: T1, BMPR1A (Homo sapiens, UniProt P36894)
T1 construct: purchased Reaction Biology Europe GmbH (formerly ProQinase)
Procedure: (§1) The Kinome Screening was performed by Reaction Biology Europe GmbH (http://reactionbiology.com; Freiburg i. Br., Germany).

BMPR1B = target: T2, BMPR1B (Homo sapiens, UniProt O00238)
T2 construct: purchased Reaction Biology Europe GmbH (formerly ProQinase)
T2 sequence (O00238 14-502): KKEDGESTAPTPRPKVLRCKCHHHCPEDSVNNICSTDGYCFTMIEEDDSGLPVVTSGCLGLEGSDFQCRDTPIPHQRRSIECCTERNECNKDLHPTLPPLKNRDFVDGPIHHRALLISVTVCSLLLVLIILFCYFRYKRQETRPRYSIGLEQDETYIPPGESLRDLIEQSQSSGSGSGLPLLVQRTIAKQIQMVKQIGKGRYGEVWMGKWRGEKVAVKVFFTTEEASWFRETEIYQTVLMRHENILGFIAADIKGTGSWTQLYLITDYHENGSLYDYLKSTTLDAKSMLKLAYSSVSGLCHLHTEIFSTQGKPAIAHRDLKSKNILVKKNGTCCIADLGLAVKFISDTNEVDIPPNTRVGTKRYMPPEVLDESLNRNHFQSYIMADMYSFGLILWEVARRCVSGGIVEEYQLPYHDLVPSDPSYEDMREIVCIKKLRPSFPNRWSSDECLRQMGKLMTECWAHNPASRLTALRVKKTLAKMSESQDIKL
Procedure: as §1

CDK17/p35NCK = target: T3, CDK17/p35NCK (Homo sapiens, UniProt Q00537)
T3 construct: purchased Reaction Biology Europe GmbH (formerly ProQinase)
T3 sequence (Q00537 whole entry): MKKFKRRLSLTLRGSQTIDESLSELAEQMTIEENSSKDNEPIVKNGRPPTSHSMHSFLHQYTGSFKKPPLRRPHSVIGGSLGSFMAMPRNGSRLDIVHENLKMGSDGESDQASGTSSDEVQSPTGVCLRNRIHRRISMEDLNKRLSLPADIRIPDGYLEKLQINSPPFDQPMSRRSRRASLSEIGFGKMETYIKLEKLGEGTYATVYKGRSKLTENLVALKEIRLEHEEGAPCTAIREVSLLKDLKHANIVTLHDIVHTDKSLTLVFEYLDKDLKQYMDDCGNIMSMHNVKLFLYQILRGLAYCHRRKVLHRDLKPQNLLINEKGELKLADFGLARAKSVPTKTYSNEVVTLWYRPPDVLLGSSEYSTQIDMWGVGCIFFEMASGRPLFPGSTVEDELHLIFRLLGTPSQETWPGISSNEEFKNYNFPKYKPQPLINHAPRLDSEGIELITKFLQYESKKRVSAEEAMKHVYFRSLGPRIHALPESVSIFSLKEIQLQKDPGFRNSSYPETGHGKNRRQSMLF
T3 sequence (Q15078 whole entry partner): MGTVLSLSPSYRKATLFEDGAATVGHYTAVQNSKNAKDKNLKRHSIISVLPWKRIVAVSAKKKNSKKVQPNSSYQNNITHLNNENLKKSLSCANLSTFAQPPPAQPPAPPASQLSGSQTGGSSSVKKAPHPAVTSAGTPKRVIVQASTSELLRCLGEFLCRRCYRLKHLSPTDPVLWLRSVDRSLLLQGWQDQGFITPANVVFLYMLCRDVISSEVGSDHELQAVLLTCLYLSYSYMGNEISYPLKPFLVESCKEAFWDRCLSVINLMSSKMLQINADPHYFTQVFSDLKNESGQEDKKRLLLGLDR
Procedure: as §1

CDK18/CycY = target: T4, CDK18/CycY (Homo sapiens, UniProt Q07002)
T4 construct: purchased Reaction Biology Europe GmbH (formerly ProQinase)
T4 sequence (Q07002 whole entry): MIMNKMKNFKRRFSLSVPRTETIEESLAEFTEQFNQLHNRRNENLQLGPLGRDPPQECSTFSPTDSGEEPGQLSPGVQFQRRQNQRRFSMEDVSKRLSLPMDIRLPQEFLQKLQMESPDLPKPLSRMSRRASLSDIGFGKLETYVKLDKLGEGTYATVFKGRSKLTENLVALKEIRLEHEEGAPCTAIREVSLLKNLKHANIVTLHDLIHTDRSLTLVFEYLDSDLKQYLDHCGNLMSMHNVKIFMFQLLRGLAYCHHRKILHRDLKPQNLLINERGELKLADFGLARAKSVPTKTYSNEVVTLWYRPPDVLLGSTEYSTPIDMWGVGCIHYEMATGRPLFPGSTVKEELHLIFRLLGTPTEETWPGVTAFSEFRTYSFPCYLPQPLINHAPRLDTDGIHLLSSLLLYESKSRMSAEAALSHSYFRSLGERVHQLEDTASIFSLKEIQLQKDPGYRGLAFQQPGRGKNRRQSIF
T4 sequence (Q8ND76 whole entry partner): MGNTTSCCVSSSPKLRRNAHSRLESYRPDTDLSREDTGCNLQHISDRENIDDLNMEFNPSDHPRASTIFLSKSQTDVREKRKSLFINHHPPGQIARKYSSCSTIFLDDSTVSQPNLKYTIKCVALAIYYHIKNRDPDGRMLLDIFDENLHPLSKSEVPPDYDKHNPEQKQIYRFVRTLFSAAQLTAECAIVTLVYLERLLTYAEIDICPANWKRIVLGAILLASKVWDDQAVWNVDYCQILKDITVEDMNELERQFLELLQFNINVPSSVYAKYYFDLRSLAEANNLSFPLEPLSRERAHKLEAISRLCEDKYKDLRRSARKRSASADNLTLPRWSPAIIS
Procedure: as §1

CDK6/CycD2 = target: T5, CDK6/CycD2 (Homo sapiens, UniProt Q00534)
T5 construct: purchased Reaction Biology Europe GmbH (formerly ProQinase)
Procedure: as §1

ERBB4 = target: T6, ERBB4 (Homo sapiens, UniProt Q15303)
T6 construct: purchased Reaction Biology Europe GmbH (formerly ProQinase)
Procedure: as §1

FYN = target: T7, FYN (Homo sapiens, UniProt P06241)
T7 construct: purchased Reaction Biology Europe GmbH (formerly ProQinase)
T7 sequence (P06241 whole entry): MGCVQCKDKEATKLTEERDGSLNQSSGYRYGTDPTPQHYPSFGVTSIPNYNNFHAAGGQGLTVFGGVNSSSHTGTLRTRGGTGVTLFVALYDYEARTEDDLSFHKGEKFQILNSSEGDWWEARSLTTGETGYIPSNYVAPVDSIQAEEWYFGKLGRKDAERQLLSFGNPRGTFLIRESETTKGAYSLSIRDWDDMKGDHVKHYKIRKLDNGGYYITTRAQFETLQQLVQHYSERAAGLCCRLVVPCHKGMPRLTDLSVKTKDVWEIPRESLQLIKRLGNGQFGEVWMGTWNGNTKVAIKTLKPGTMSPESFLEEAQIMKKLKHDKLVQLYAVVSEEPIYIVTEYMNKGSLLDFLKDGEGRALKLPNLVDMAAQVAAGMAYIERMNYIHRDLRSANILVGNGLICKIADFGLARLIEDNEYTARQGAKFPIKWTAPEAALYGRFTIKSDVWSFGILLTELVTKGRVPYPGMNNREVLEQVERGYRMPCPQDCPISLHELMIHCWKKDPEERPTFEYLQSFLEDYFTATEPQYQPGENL
Procedure: as §1

JNK2 = target: T8, JNK2 (Homo sapiens, UniProt P45984)
T8 construct: purchased Reaction Biology Europe GmbH (formerly ProQinase)
T8 sequence (P45984 whole entry): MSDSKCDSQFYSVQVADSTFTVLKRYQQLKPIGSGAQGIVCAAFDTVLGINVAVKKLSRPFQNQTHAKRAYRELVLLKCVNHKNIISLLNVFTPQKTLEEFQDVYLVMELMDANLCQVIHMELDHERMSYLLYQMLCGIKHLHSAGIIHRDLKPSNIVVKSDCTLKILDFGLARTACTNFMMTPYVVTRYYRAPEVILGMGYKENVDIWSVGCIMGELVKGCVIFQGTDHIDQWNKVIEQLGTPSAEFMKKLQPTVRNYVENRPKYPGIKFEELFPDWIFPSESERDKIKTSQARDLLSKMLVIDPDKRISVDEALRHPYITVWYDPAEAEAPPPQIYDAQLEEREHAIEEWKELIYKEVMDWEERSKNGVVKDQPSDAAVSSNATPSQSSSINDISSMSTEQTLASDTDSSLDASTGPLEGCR
Procedure: as §1

MEK2 = target: T9, MEK2 (Homo sapiens, UniProt P36507)
T9 construct: purchased Reaction Biology Europe GmbH (formerly ProQinase)
Procedure: as §1

PRKD2 = target: T10, PRKD2 (Homo sapiens, UniProt Q9BZL6)
T10 construct: purchased Reaction Biology Europe GmbH (formerly ProQinase)
T10 sequence (Q9BZL6 1-878): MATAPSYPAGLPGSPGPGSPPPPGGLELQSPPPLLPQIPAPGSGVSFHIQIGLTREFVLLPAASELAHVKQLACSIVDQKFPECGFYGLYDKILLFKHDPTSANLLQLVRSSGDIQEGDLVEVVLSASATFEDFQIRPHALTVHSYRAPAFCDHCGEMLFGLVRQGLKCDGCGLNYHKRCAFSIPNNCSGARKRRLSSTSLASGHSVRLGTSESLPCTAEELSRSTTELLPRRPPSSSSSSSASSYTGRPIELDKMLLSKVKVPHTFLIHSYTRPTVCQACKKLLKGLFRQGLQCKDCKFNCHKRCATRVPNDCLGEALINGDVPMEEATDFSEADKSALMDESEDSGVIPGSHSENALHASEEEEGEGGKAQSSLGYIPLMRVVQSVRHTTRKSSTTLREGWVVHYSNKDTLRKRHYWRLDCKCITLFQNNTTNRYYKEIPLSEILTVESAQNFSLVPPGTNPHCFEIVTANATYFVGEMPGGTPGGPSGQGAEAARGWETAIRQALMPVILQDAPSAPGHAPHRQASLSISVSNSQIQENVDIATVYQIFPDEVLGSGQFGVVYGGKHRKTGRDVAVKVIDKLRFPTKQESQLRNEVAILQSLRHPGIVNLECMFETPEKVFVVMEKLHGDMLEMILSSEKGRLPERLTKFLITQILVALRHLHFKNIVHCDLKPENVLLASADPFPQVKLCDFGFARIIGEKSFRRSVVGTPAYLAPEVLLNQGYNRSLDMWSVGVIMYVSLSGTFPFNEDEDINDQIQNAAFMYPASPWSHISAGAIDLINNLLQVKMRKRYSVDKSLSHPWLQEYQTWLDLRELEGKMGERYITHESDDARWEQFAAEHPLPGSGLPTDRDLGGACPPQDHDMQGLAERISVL
Procedure: as §1

SGK3 = target: T11, SGK3 (Homo sapiens, UniProt Q96BR1)
T11 construct: purchased Reaction Biology Europe GmbH (formerly ProQinase)
T11 sequence (Q96BR1 1-496): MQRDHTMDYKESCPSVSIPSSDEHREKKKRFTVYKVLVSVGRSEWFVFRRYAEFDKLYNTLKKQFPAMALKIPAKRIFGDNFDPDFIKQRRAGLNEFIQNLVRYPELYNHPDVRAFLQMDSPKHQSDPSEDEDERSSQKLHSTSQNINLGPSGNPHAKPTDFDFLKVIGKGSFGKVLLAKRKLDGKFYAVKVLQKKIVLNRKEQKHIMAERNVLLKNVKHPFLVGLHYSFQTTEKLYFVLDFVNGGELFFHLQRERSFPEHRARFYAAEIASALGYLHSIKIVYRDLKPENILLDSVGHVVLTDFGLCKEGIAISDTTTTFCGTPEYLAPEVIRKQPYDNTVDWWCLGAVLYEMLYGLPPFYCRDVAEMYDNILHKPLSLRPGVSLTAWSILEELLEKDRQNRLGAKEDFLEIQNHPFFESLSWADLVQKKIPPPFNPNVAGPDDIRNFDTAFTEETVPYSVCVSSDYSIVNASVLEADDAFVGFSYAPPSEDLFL
Procedure: as §1

TTBK2 = target: T12, TTBK2 (Homo sapiens, UniProt Q6IQ55)
T12 construct: purchased Reaction Biology Europe GmbH (formerly ProQinase)
T12 sequence (Q6IQ55 whole entry): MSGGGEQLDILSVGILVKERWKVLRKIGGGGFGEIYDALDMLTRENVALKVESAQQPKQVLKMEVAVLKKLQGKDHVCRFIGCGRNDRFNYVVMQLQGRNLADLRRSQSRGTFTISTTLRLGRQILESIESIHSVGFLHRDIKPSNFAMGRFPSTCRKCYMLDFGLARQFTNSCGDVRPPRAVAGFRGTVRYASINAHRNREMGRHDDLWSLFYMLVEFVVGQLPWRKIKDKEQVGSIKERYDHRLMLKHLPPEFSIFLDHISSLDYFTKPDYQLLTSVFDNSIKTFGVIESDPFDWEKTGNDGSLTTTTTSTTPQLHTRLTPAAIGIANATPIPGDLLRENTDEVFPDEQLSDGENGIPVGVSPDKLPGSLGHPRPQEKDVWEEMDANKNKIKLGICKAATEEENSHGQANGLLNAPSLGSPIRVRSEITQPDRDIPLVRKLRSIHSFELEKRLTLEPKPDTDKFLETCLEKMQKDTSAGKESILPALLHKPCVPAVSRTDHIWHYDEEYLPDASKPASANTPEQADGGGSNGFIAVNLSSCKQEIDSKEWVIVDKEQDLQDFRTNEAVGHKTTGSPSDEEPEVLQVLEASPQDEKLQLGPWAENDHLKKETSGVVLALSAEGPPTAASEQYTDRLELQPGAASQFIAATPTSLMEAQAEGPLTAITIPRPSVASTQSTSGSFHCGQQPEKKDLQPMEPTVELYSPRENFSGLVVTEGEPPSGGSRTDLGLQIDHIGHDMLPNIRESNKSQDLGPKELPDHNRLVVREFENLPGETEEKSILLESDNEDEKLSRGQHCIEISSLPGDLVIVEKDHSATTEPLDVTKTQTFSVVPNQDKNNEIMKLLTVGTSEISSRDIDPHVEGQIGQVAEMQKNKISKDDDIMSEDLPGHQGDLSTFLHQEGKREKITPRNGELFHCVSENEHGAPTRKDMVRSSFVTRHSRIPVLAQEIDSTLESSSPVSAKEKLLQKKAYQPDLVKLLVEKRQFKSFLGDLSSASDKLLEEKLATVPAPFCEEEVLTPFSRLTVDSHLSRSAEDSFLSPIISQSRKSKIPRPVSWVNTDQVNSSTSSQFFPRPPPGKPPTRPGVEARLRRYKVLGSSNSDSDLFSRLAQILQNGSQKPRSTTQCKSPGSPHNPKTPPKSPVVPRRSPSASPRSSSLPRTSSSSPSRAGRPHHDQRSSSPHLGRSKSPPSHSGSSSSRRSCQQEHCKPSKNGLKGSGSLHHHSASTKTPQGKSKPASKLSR
Procedure: as §1

T1 sequence (P36894 24-532): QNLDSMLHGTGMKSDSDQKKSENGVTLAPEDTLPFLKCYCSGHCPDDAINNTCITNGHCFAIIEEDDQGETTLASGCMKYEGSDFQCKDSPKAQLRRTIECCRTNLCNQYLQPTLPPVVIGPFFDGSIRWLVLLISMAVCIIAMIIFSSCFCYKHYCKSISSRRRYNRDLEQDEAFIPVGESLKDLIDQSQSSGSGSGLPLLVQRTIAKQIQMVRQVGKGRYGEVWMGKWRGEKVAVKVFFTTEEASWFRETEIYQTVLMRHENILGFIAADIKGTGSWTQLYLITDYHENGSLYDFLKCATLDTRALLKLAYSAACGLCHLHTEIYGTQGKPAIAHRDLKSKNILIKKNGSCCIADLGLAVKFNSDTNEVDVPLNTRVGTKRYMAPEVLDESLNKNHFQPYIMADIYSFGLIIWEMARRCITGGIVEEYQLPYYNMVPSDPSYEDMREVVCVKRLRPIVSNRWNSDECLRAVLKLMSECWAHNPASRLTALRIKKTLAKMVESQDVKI

| SMILES | residual kinase activity (BMPR1A; 0.3 µM) | residual kinase activity (BMPR1B; 0.3 µM) | residual kinase activity (CDK17/p35NCK; 0.3 µM) | residual kinase activity (CDK18/CycY; 0.3 µM) | residual kinase activity (CDK6/CycD2; 0.3 µM) | residual kinase activity (ERBB4; 0.3 µM) | residual kinase activity (FYN; 0.3 µM) | residual kinase activity (JNK2; 0.3 µM) | residual kinase activity (MEK2; 0.3 µM) | residual kinase activity (PRKD2; 0.3 µM) | residual kinase activity (SGK3; 0.3 µM) | residual kinase activity (TTBK2; 0.3 µM) | also measured |
| --- | --- | --- | --- | --- | --- | --- | --- | --- | --- | --- | --- | --- | --- |
| COc1ccnc2[nH]cc(-c3cc(N)nc(N)c3)c12 [meriolin 16] | 94 % of control | 91 % of control | 24 % of control | 5 % of control | 76 % of control | 90 % of control | 69 % of control | 85 % of control | 48 % of control | 37 % of control | 84 % of control | 91 % of control | residual kinase activity (BMPR1A; 0.03 µM): 94 % of control; residual kinase activity (BMPR1B; 0.03 µM): 91 % of control; residual kinase activity (CDK17/p35NCK; 0.03 µM): 46 % of control; residual kinase activity (CDK18/CycY; 0.03 µM): 36 % of control; residual kinase activity (CDK6/CycD2; 0.03 µM): 93 % of control; residual kinase activity (ERBB4; 0.03 µM): 108 % of control; residual kinase activity (FYN; 0.03 µM): 93 % of control; residual kinase activity (JNK2; 0.03 µM): 78 % of control; residual kinase activity (MEK2; 0.03 µM): 66 % of control; residual kinase activity (PRKD2; 0.03 µM): 87 % of control; residual kinase activity (SGK3; 0.03 µM): 94 % of control; residual kinase activity (TTBK2; 0.03 µM): 96 % of control |
| c1ccc(CNc2cc(-c3c[nH]c4ncccc34)ccn2)cc1 [meriolin 36] | 105 % of control | 75 % of control | 20 % of control | 6 % of control | 47 % of control | 101 % of control | 22 % of control | 63 % of control | 13 % of control | 68 % of control | 81 % of control | 93 % of control | residual kinase activity (BMPR1A; 3 µM): 61 % of control; residual kinase activity (BMPR1B; 3 µM): 45 % of control; residual kinase activity (CDK17/p35NCK; 3 µM): 10 % of control; residual kinase activity (CDK18/CycY; 3 µM): 0 % of control; residual kinase activity (CDK6/CycD2; 3 µM): 10 % of control; residual kinase activity (ERBB4; 3 µM): 56 % of control; residual kinase activity (FYN; 3 µM): 3 % of control; residual kinase activity (JNK2; 3 µM): 29 % of control; residual kinase activity (MEK2; 3 µM): 3 % of control; residual kinase activity (PRKD2; 3 µM): 25 % of control; residual kinase activity (SGK3; 3 µM): 27 % of control; residual kinase activity (TTBK2; 3 µM): 56 % of control |
